ChEMBL document CHEMBL4004849, “Tetrazolylmethyl quinolines: Design, docking studies, synthesis, anticancer and antifungal analyses” (2017)
In brackets after ≈: the same amount, converted by molar mass. Activity calls are given as the source filed them. The calls are words filed in the database; no cut-off is given here.

Assays:
Type in all cases: functional
HL-60(TB) = test: Growth inhibition of human HL-60(TB) cells at 10^-5 M incubated for 48 hrs by sulforhodamine B assay relative to control
MOLT-4 = test: Growth inhibition of human MOLT4 cells at 10^-5 M incubated for 48 hrs by sulforhodamine B assay relative to control
A549 = test: Growth inhibition of human A549/ATCC cells at 10^-5 M incubated for 48 hrs by sulforhodamine B assay relative to control
EKVX = test: Growth inhibition of human EKVX cells at 10^-5 M incubated for 48 hrs by sulforhodamine B assay relative to control
NCI-H23 = test: Growth inhibition of human NCI-H23 cells at 10^-5 M incubated for 48 hrs by sulforhodamine B assay relative to control
NCI-H460 = test: Growth inhibition of human NCI-H460 cells at 10^-5 M incubated for 48 hrs by sulforhodamine B assay relative to control
NCI-H522 = test: Growth inhibition of human NCI-H522 cells at 10^-5 M incubated for 48 hrs by sulforhodamine B assay relative to control
COLO 205 = test: Growth inhibition of human COLO205 cells at 10^-5 M incubated for 48 hrs by sulforhodamine B assay relative to control
HCC 2998 = test: Growth inhibition of human HCC2998 cells at 10^-5 M incubated for 48 hrs by sulforhodamine B assay relative to control
HCT-116 = test: Growth inhibition of human HCT116 cells at 10^-5 M incubated for 48 hrs by sulforhodamine B assay relative to control
HCT-15 = test: Growth inhibition of human HCT15 cells at 10^-5 M incubated for 48 hrs by sulforhodamine B assay relative to control
KM12 = test: Growth inhibition of human KM12 cells at 10^-5 M incubated for 48 hrs by sulforhodamine B assay relative to control
SW-620 = test: Growth inhibition of human SW620 cells at 10^-5 M incubated for 48 hrs by sulforhodamine B assay relative to control
SF-295 = test: Growth inhibition of human SF295 cells at 10^-5 M incubated for 48 hrs by sulforhodamine B assay relative to control
SF-539 = test: Growth inhibition of human SF539 cells at 10^-5 M incubated for 48 hrs by sulforhodamine B assay relative to control
SNB-19 = test: Growth inhibition of human SNB19 cells at 10^-5 M incubated for 48 hrs by sulforhodamine B assay relative to control
SNB-75 = test: Growth inhibition of human SNB75 cells at 10^-5 M incubated for 48 hrs by sulforhodamine B assay relative to control
U-251 = test: Growth inhibition of human U251 cells at 10^-5 M incubated for 48 hrs by sulforhodamine B assay relative to control
LOX IMVI = test: Growth inhibition of human LOXIMVI cells at 10^-5 M incubated for 48 hrs by sulforhodamine B assay relative to control
M14 = test: Growth inhibition of human M14 cells at 10^-5 M incubated for 48 hrs by sulforhodamine B assay relative to control
SK-MEL-2 = test: Growth inhibition of human SK-MEL-2 cells at 10^-5 M incubated for 48 hrs by sulforhodamine B assay relative to control
SK-MEL-28 = test: Growth inhibition of human SK-MEL-28 cells at 10^-5 M incubated for 48 hrs by sulforhodamine B assay relative to control
SK-MEL-5 = test: Growth inhibition of human SK-MEL-5 cells at 10^-5 M incubated for 48 hrs by sulforhodamine B assay relative to control
UACC-257 = test: Growth inhibition of human UACC257 cells at 10^-5 M incubated for 48 hrs by sulforhodamine B assay relative to control
UACC-62 = test: Growth inhibition of human UACC62 cells at 10^-5 M incubated for 48 hrs by sulforhodamine B assay relative to control
IGROV-1 = test: Growth inhibition of human IGROV1 cells at 10^-5 M incubated for 48 hrs by sulforhodamine B assay relative to control
OVCAR-4 = test: Growth inhibition of human OVCAR4 cells at 10^-5 M incubated for 48 hrs by sulforhodamine B assay relative to control
OVCAR-5 = test: Growth inhibition of human OVCAR5 cells at 10^-5 M incubated for 48 hrs by sulforhodamine B assay relative to control
OVCAR-8 = test: Growth inhibition of human OVCAR8 cells at 10^-5 M incubated for 48 hrs by sulforhodamine B assay relative to control
NCI/ADR-RES = test: Growth inhibition of human NCI-ADR-RES cells at 10^-5 M incubated for 48 hrs by sulforhodamine B assay relative to control
786-0 = test: Growth inhibition of human 786-0 cells at 10^-5 M incubated for 48 hrs by sulforhodamine B assay relative to control
ACHN = test: Growth inhibition of human ACHN cells at 10^-5 M incubated for 48 hrs by sulforhodamine B assay relative to control
RXF 393 = test: Growth inhibition of human RXF393 cells at 10^-5 M incubated for 48 hrs by sulforhodamine B assay relative to control
TK-10 = test: Growth inhibition of human TK10 cells at 10^-5 M incubated for 48 hrs by sulforhodamine B assay relative to control
UO-31 = test: Growth inhibition of human UO31 cells at 10^-5 M incubated for 48 hrs by sulforhodamine B assay relative to control
MCF7 = test: Growth inhibition of human MCF7 cells at 10^-5 M incubated for 48 hrs by sulforhodamine B assay relative to control
MDA-MB-231 = test: Growth inhibition of human MDA-MB-231/ATCC cells at 10^-5 M incubated for 48 hrs by sulforhodamine B assay relative to control
Hs-578T = test: Growth inhibition of human Hs 578T cells at 10^-5 M incubated for 48 hrs by sulforhodamine B assay relative to control
BT-549 = test: Growth inhibition of human BT549 cells at 10^-5 M incubated for 48 hrs by sulforhodamine B assay relative to control
T47D = test: Growth inhibition of human T47D cells at 10^-5 M incubated for 48 hrs by sulforhodamine B assay relative to control
MDA-MB-468 = test: Growth inhibition of human MDA-MB-468 cells at 10^-5 M incubated for 48 hrs by sulforhodamine B assay relative to control
Candida albicans [1] = test: Antifungal activity against Candida albicans at 100 ug/ml by disc diffusion method; settings: read-out: IZ
Candida albicans [2] = test: Antifungal activity against Candida albicans after 24 hrs by serial dilution method
Aspergillus fumigatus = test: Antifungal activity against Aspergillus fumigatus after 24 hrs by serial dilution method

SMILES: Cc1ccc2nc(Cl)c(Cn3nnnc3CSc3ccccc3)cc2c1
- growth inhibition (GI) (HL-60(TB)): Active
- growth inhibition (GI) (MOLT-4): Active
- growth inhibition (GI) (A549): Active
- growth inhibition (GI) (EKVX): Active
- growth inhibition (GI) (NCI-H23): Active
- growth inhibition (GI) (NCI-H460): Active
- growth inhibition (GI) (NCI-H522): Active
- growth inhibition (GI) (COLO 205): Active
- growth inhibition (GI) (HCC 2998): Active
- growth inhibition (GI) (HCT-116): Active
- growth inhibition (GI) (HCT-15): Active
- growth inhibition (GI) (KM12): Active
- growth inhibition (GI) (SW-620): Active
- growth inhibition (GI) (SF-295): Active
- growth inhibition (GI) (SF-539): Active
- growth inhibition (GI) (SNB-19): Active
- growth inhibition (GI) (SNB-75): Active
- growth inhibition (GI) (U-251): Active
- growth inhibition (GI) (LOX IMVI): Active
- growth inhibition (GI) (M14): Active
- growth inhibition (GI) (SK-MEL-2): Active
- growth inhibition (GI) (SK-MEL-28): Active
- growth inhibition (GI) (SK-MEL-5): Active
- growth inhibition (GI) (UACC-257): Active
- growth inhibition (GI) (UACC-62): Active
- growth inhibition (GI) (IGROV-1): Active
- growth inhibition (GI) (OVCAR-4): Active
- growth inhibition (GI) (OVCAR-5): Active
- growth inhibition (GI) (OVCAR-8): Active
- growth inhibition (GI) (NCI/ADR-RES): Active
- growth inhibition (GI) (786-0): Active
- growth inhibition (GI) (ACHN): Active
- growth inhibition (GI) (RXF 393): Active
- growth inhibition (GI) (TK-10): Active
- growth inhibition (GI) (UO-31): Active
- growth inhibition (GI) (MCF7): Active
- growth inhibition (GI) (MDA-MB-231): Active
- growth inhibition (GI) (Hs-578T): Active
- growth inhibition (GI) (BT-549): Active
- growth inhibition (GI) (T47D): Active
- growth inhibition (GI) (MDA-MB-468): Active
- zone of inhibition at 100 µg/mL (Candida albicans [1]): 12 mm
- MIC (Candida albicans [2]): 10 µg/mL (≈ 26.2 µM)
- MIC (Aspergillus fumigatus): 25 µg/mL (≈ 65.5 µM)

SMILES: Clc1nc2ccccc2cc1Cn1nnnc1Cc1ccccc1
- growth inhibition (GI) (HL-60(TB)): Active
- growth inhibition (GI) (MOLT-4): Active
- growth inhibition (GI) (A549): Active
- growth inhibition (GI) (EKVX): Active
- growth inhibition (GI) (NCI-H23): Active
- growth inhibition (GI) (NCI-H460): Active
- growth inhibition (GI) (NCI-H522): Active
- growth inhibition (GI) (COLO 205): Active
- growth inhibition (GI) (HCC 2998): Active
- growth inhibition (GI) (HCT-116): Active
- growth inhibition (GI) (HCT-15): Active
- growth inhibition (GI) (KM12): Active
- growth inhibition (GI) (SW-620): Active
- growth inhibition (GI) (SF-295): Active
- growth inhibition (GI) (SF-539): Active
- growth inhibition (GI) (SNB-19): Active
- growth inhibition (GI) (SNB-75): Active
- growth inhibition (GI) (U-251): Active
- growth inhibition (GI) (LOX IMVI): Active
- growth inhibition (GI) (M14): Active
- growth inhibition (GI) (SK-MEL-2): Active
- growth inhibition (GI) (SK-MEL-28): Active
- growth inhibition (GI) (SK-MEL-5): Active
- growth inhibition (GI) (UACC-257): Active
- growth inhibition (GI) (UACC-62): Active
- growth inhibition (GI) (IGROV-1): Active
- growth inhibition (GI) (OVCAR-4): Active
- growth inhibition (GI) (OVCAR-5): Active
- growth inhibition (GI) (OVCAR-8): Active
- growth inhibition (GI) (NCI/ADR-RES): Active
- growth inhibition (GI) (786-0): Active
- growth inhibition (GI) (ACHN): Active
- growth inhibition (GI) (RXF 393): Active
- growth inhibition (GI) (TK-10): Active
- growth inhibition (GI) (UO-31): Active
- growth inhibition (GI) (MCF7): Active
- growth inhibition (GI) (MDA-MB-231): Active
- growth inhibition (GI) (Hs-578T): Active
- growth inhibition (GI) (BT-549): Active
- growth inhibition (GI) (T47D): Active
- growth inhibition (GI) (MDA-MB-468): Active
- zone of inhibition at 100 µg/mL (Candida albicans [1]): 10 mm
- MIC (Candida albicans [2]): 25 µg/mL (≈ 74.4 µM)
- MIC (Aspergillus fumigatus): 50 µg/mL (≈ 149 µM)
